Assay results published in US6881751B2, “Medicament containing platinum complex compounds and the use thereof” (Ruprecht Karls Universitat, priority 1998, dated 2005).

What was measured:
[1] = system: Bronchial carcinoma cells (SCLC); experiment: Anti-tumoral effect on a human parvocellular bronchial carcinoma in naked mice; format: in vivo, Nu/Nu mice, strain NMRI; settings: 10 mg/kg intravenously, SCLC tumors about 8 mm, FIG. 1
Procedure: a) Anti-Tumoral Effect on a Human Parvocellular Bronchial Carcinoma in Naked Mice
Bronchial carcinoma cells (SCLC) were implanted under the skin of six-week-old Nu/Nu mice, strain NMRI (5×10^6 cells in 0.1 ml common salt solution). The tumors had reached a size of about 8 mm after two weeks. Then, five animals each were treated intravenously with either 0.2 ml common salt solution/[…]/1% acetone (control group) or with 10 mg/kg compound according to Example 1 in common salt solution/1% BSA/1% acetone (treated group). The tumor growth was controlled daily. The values are shown in enclosed FIG. 1.

[2] = system: SW707 cells of a colorectal carcinoma; experiment: Antitumoral effect on human xenotransplants, SW707; format: in vivo, Nu/Nu-Swiss mice; settings: single i.p. injection 10 mg/kg, FIG. 4B
[3] = system: Colon carcinoma cells (SW707); experiment: Anti-tumoral effect on a human colon carcinoma in naked mice; format: in vivo, Nu/Nu mice, strain NMRI; settings: SW707 tumors about 10 mm, FIG. 2
Source text: b) Anti-Tumoral Effect of a Compound According to Example 1 on a Human Colon Carcinoma in Naked Mice Colon carcinoma cells (SW707) were implanted under the skin of 6-week-old Nu/Nu mice, strain NMRI (5×10^6 cells in common salt solution).

[4] = Body weight of the xenotransplant group suffering from parvocellular pulmonary carcinoma; format: in vivo, Nu/Nu-Swiss mice
Procedure: The tumor sizes were determined in two directions and the relative tumor growth was calculated.
(C): Average body weights of the group suffering from parvocellular pulmonary carcinoma. The standard deviations were less than 3%.

HeLa cells = experiment: pH dependence of the effectiveness of cytostatic agents (live cell count, trypan blue); format: cell-based, Human; settings: pH 7.4 vs pH 6.8, 24 hours, FIG. 3
Procedure: The number of live cells was determined after vital staining using trypan blue in Neubauer's counting chamber.

cell lines = experiment: Dependence of the cytotoxicity on the pH value, all cell lines of the table; format: cell-based; settings: pH 6.8 vs pH 7.4, cell lines of the table
Procedure: Cells were plated in Linbro dishes or plates and, after 4 hours, the cells were fed with a medium which included either 2.2 g/l (pH 7.4) or 0.85 g/l (pH 6.8) NaHCO3.

[5] = system: Human H10 cells of a parvocellular bronchial carcinoma; experiment: Antitumoral effect on human xenotransplants, H10; format: in vivo, Nu/Nu-Swiss mice; settings: single i.p. injection 10 mg/kg, FIG. 4A

SMILES	tumor size [1]	effect on tumor growth [2]	tumor growth ([3]; 7.5 mg/kg intravenously (treated group I))	weight loss ([4]; mouse, in vivo, ip, 10 mg/kg)	pH dependence of effectiveness (HeLa cells)	tumor growth ([3]; 10 mg/kg intravenously (treated group II))	pH effect on IC50 (cell lines)	weight loss ([4]; day 3 after the treatment, 10 mg/kg i.p., FIG. 4C) [%]	weight loss ([4]; day 6 after the treatment, 10 mg/kg i.p., FIG. 4C) [%]	tumor size as compared to the control group [5] [%]
CCOC1=[S+][Pt-2]2([S]1)[S]C(OCC)=[S+]2 [Example 1, bis-[O-ethyldithiocarbanato]Platinum (II)]	decreased in size	tumor growth could be prevented	tumor growth was slowed down	no weight loss	effective maximum in the slightly acidic range					
N.N.[Cl][Pt][Cl] [cisplatin]		no effect			better effects in the alkaline range	constant tumor growth	poorer with pH 6.8 than with pH 7.4 or there was no detectable pH effect	12	13	50
